# Experimental data reported in publication PMC10141580, “Cyclic Dichalcogenides Extend the Reach of Bioreductive Prodrugs to Harness Thiol/Disulfide Oxidoreductases: Applications to seco-Duocarmycins Targeting the Thioredoxin System” (ACS Central Science, 2023).
# pIC50: −log10 of the molar value. Where two headings read alike, the source gives them in different places.
# Experiments:
# [1] = test system: mouse; test: Tolerability for repeated dose administration in vivo (summary); conditions: for well-tolerated dose: weekly or twice-weekly administration; for remarks: repeated dose administration
# [2] = test system: A549 cells; test: Resazurin cytotoxicity assay, A549, 72 h; conditions: read-out: IC50(nM): A549
# Procedure: (§1) We used A549 lung cancer and HeLa cervical cancer cell lines for initial screening of the prodrugs.
# Fi gure S9: Cell ular resazurin-based cytotoxi ci ty as s a y.
# Dose -response curves were calculated from at least 27 incremental single concentrations over a range
# of at least three log units. Individual experiments with annotated experiment numbers are shown for each prodrug
# [3] = test system: HeLa-HRE cells; test: Resazurin cytotoxicity assay, HeLa-HRE, 48 h; conditions: for IC50(HeLa)/IC50(A549): ratio HeLa vs A549; for IC50: read-out: IC50(nM): HeLa, HeLa, 48 h
# Procedure: as §1
# HeLa-HRE cells were treated with prodrugs of the
# Dose -response curves were calculated from at least 27 incremental single concentrations over a
# range of at least three log units.
# [4] = test system: NCI-60 standardized human tumor cell line panel; test: cells; type: cell-based; conditions: read-out: GI50
# [5] = test system: Balb/c mice; test: Moderate repeated dosing tolerability study; type: in vivo
# Procedure: Next, a moderate repeated dosing study in Balb/c mice (3 animals per group) tested the importance of solubilizing the prodrugs.
# Methods for in vivo animal studies
# All in vivo studies were conducted as contract research together with React ionBiology Eur ope G mbH (Freiburg,
# Germany), EPO – Experimental Pharmacology & Oncology GmbH (Berlin, Germany); Bient a/ Enam ine Lt d. (Kyiv,
# Ukraine) and Leit at – Managing Technologies (Barcelona, Spain), adhering to the respective animal welfare
# Mice were kept in individually ventilated cages at constant temperature (22±2 °C, air-conditioned) and humidity (45
# – 65%), under optimum hygienic conditions with 10 – 15 air changes per hour. A cycle of 12 h artificial fluorescent
# light ning and 12 h darkness was applied , and animal behavior was monitored daily throughout the studies. The
# animals received food and water ad libit um.
# To evaluate toxicity of selected compounds, dose level selection studies within dose range from 0.1 mg/kg to
# 10 mg/kg were performed by intravenous administration into Balb /c mice. Each dose for each tested compound
# was administered in one mouse.
# changes and clinical signs of gross toxicity three tim es per week for 21 consecutive days of post-dosing period.
# After the first week of observation without adverse events, two doses for each test compound were selected as
# tolerated. These two doses were tested in two additional mice for confirmation of toler ability. Additional animals
# consecutive days of post-dosing period. Toxicity of repeated administrations was tested wit h t hr ee repeat ed pr e-
# selected doses at a dosing interval of 7 days. Mortality, body weight changes, and clinical signs of gross toxicity
# were monitored after each drug administration and three times per week for 21 consecutive days after the first
# compound administration. Bleed ing with subsequent hematological tests, clinical chemistry parameters analysis
# (ALT, AST, ALP, LDH, creatine kinase, creatinine, urea, cholesterol, and triglycerides), and necropsy with
# macroscopic inspection were performed on the terminal day of the repeated dosing-regime.
# To test tolerability of selected compounds in vivo, female BALB/c mice were randomized by weight into seven
# groups of t hree animals.
smiles,measurement,setting,value
O=C(c1cc2cc(OCCCN3CCC3)ccc2[nH]1)N1CC(CCl)c2c1cc(OC(=O)N1CCCC3COCC31)c1ccccc21 (mixture of isomers) [O56-CBI-AZI],well-tolerated dose,[1],1 mg/kg
same,IC50,[2],410 nM
same,pIC50,"[3]; initial screening, A549 and HeLa cell lines",~6.52
same,IC50(HeLa)/IC50(A549),[3],1.1
same,IC50,[3],460 nM
COC(=O)Oc1cc2c(c3ccccc13)[C@H](CCl)CN2C(=O)c1cc2cc(OCCCN3CCC3)ccc2[nH]1 [MC-CBI-AZI],IC50,[2],1.6 nM
same,IC50(HeLa)/IC50(A549),[3],0.5
same,IC50,[3],0.8 nM
COC(=O)Oc1cc2c(c3ccccc13)[C@H](CCl)CN2C(=O)c1cc2cc(OC)c(OC)c(OC)c2[nH]1 [MC-CBI-TMI],IC50,[2],2.9 nM
same,IC50(HeLa)/IC50(A549),[3],1.5
same,IC50,[3],4.3 nM
CN1CCN(C(=O)CCN(C(=O)Oc2cc3c(c4ccccc24)[C@H](CCl)CN3C(=O)c2cc3cc(OCCCN4CCC4)ccc3[nH]2)[C@H]2CCSSC2)CC1 [P-SS60-CBI-AZI],GI50,"[4]; 786-0, AZI sheet",330 nM
same,GI50,"[4]; A498, AZI sheet",200 nM
same,GI50,"[4]; A549/ATCC, AZI sheet",110 nM
same,GI50,"[4]; ACHN, AZI sheet",130 nM
same,GI50,"[4]; BT-549, AZI sheet",1000 nM
same,GI50,"[4]; CAKI-1, AZI sheet",150 nM
same,GI50,"[4]; CCRF-CEM, AZI sheet",270 nM
same,GI50,"[4]; COLO 205, AZI sheet",430 nM
same,GI50,"[4]; DU-145, AZI sheet",170 nM
same,GI50,"[4]; EKVX, AZI sheet",350 nM
same,GI50,"[4]; HCC-2998, AZI sheet",150 nM
same,GI50,"[4]; HCT-15, AZI sheet",210 nM
same,GI50,"[4]; HCT-116, AZI sheet",230 nM
same,GI50,"[4]; HL-60(TB), AZI sheet",390 nM
same,GI50,"[4]; HOP-62, AZI sheet",150 nM
same,GI50,"[4]; HOP-92, AZI sheet",1000 nM
same,GI50,"[4]; HT29, AZI sheet",210 nM
same,GI50,"[4]; IGROV1, AZI sheet",540 nM
same,GI50,"[4]; K-562, AZI sheet",220 nM
same,GI50,"[4]; KM12, AZI sheet",310 nM
same,GI50,"[4]; LOX IMVI, AZI sheet",86 nM
same,GI50,"[4]; M14, AZI sheet",200 nM
same,GI50,"[4]; MALME-3M, AZI sheet",230 nM
same,GI50,"[4]; MCF7, AZI sheet",49 nM
same,GI50,"[4]; MDA-MB-231, AZI sheet",402 nM
same,GI50,"[4]; MDA-MB-435, AZI sheet",290 nM
same,GI50,"[4]; MDA-MB-468, AZI sheet",150 nM
same,GI50,"[4]; MOLT-4, AZI sheet",230 nM
same,GI50,"[4]; NCI-H23, AZI sheet",66 nM
same,GI50,"[4]; NCI-H226, AZI sheet",150 nM
same,GI50,"[4]; NCI-H460, AZI sheet",31 nM
same,GI50,"[4]; NCI-H522, AZI sheet",250 nM
same,GI50,"[4]; OVCAR-3, AZI sheet",430 nM
same,GI50,"[4]; OVCAR-4, AZI sheet",1400 nM
same,GI50,"[4]; OVCAR-5, AZI sheet",390 nM
same,GI50,"[4]; OVCAR-8, AZI sheet",140 nM
same,GI50,"[4]; PC-3, AZI sheet",378 nM
same,GI50,"[4]; RPMI-8226, AZI sheet",570 nM
same,GI50,"[4]; RXF 393, AZI sheet",190 nM
same,GI50,"[4]; SF-268, AZI sheet",280 nM
same,GI50,"[4]; SF-295, AZI sheet",110 nM
same,GI50,"[4]; SF-539, AZI sheet",330 nM
same,GI50,"[4]; SK-MEL-2, AZI sheet",340 nM
same,GI50,"[4]; SK-MEL-5, AZI sheet",150 nM
same,GI50,"[4]; SK-MEL-28, AZI sheet",210 nM
same,GI50,"[4]; SK-OV-3, AZI sheet",310 nM
same,GI50,"[4]; SN12C, AZI sheet",530 nM
same,GI50,"[4]; SNB-19, AZI sheet",270 nM
same,GI50,"[4]; SR, AZI sheet",66 nM
same,GI50,"[4]; SW-620, AZI sheet",130 nM
same,GI50,"[4]; T-47D, AZI sheet",570 nM
same,GI50,"[4]; TK-10, AZI sheet",1600 nM
same,GI50,"[4]; U251, AZI sheet",100 nM
same,GI50,"[4]; UACC-62, AZI sheet",110 nM
same,GI50,"[4]; UACC-257, AZI sheet",380 nM
same,GI50,"[4]; UO-31, AZI sheet",190 nM
same,remarks,[1],well tolerated
same,well-tolerated dose,[1],3 mg/kg
same,IC50,[2],100 nM
same,IC50(HeLa)/IC50(A549),[3],8.9
same,IC50,[3],890 nM
CN(CCSSCCN1CCOCC1)C(=O)Oc1cc2c(c3ccccc13)[C@H](CCl)CN2C(=O)c1cc2cc(OCCCN3CCC3)ccc2[nH]1 [SS00M-CBI-AZI],GI50,"[4]; 786-0, AZI sheet",32 nM
same,GI50,"[4]; A498, AZI sheet",9.1 nM
same,GI50,"[4]; A549/ATCC, AZI sheet",4.5 nM
same,GI50,"[4]; ACHN, AZI sheet",28 nM
same,GI50,"[4]; BT-549, AZI sheet",84 nM
same,GI50,"[4]; CAKI-1, AZI sheet",37 nM
same,GI50,"[4]; CCRF-CEM, AZI sheet",100 nM
same,GI50,"[4]; COLO 205, AZI sheet",320 nM
same,GI50,"[4]; DU-145, AZI sheet",12 nM
same,GI50,"[4]; EKVX, AZI sheet",42 nM
same,GI50,"[4]; HCC-2998, AZI sheet",27 nM
same,GI50,"[4]; HCT-15, AZI sheet",57 nM
same,GI50,"[4]; HCT-116, AZI sheet",45 nM
same,GI50,"[4]; HL-60(TB), AZI sheet",130 nM
same,GI50,"[4]; HOP-62, AZI sheet",2.5 nM
same,GI50,"[4]; HOP-92, AZI sheet",380 nM
same,GI50,"[4]; HT29, AZI sheet",70 nM
same,GI50,"[4]; IGROV1, AZI sheet",45 nM
same,GI50,"[4]; K-562, AZI sheet",75 nM
same,GI50,"[4]; KM12, AZI sheet",31 nM
same,GI50,"[4]; LOX IMVI, AZI sheet",8.7 nM
same,GI50,"[4]; M14, AZI sheet",10 nM
same,GI50,"[4]; MALME-3M, AZI sheet",48 nM
same,GI50,"[4]; MCF7, AZI sheet",7.5 nM
same,GI50,"[4]; MDA-MB-231, AZI sheet",71.1 nM
same,GI50,"[4]; MDA-MB-435, AZI sheet",37 nM
same,GI50,"[4]; MDA-MB-468, AZI sheet",40 nM
same,GI50,"[4]; MOLT-4, AZI sheet",50 nM
same,GI50,"[4]; NCI-H23, AZI sheet",10 nM
same,GI50,"[4]; NCI-H226, AZI sheet",9.5 nM
same,GI50,"[4]; NCI-H522, AZI sheet",270 nM
same,GI50,"[4]; OVCAR-3, AZI sheet",240 nM
same,GI50,"[4]; OVCAR-4, AZI sheet",620 nM
same,GI50,"[4]; OVCAR-5, AZI sheet",68 nM
same,GI50,"[4]; OVCAR-8, AZI sheet",25 nM
same,GI50,"[4]; PC-3, AZI sheet",39.6 nM
same,GI50,"[4]; RPMI-8226, AZI sheet",470 nM
same,GI50,"[4]; RXF 393, AZI sheet",41 nM
same,GI50,"[4]; SF-268, AZI sheet",24 nM
same,GI50,"[4]; SF-295, AZI sheet",3 nM
same,GI50,"[4]; SF-539, AZI sheet",51 nM
same,GI50,"[4]; SK-MEL-2, AZI sheet",49 nM
same,GI50,"[4]; SK-MEL-5, AZI sheet",6.3 nM
same,GI50,"[4]; SK-MEL-28, AZI sheet",29 nM
same,GI50,"[4]; SK-OV-3, AZI sheet",8.7 nM
same,GI50,"[4]; SN12C, AZI sheet",65 nM
same,GI50,"[4]; SNB-19, AZI sheet",6.6 nM
same,GI50,"[4]; SR, AZI sheet",7.4 nM
same,GI50,"[4]; SW-620, AZI sheet",46 nM
same,GI50,"[4]; T-47D, AZI sheet",290 nM
same,GI50,"[4]; TK-10, AZI sheet",970 nM
same,GI50,"[4]; U251, AZI sheet",3.6 nM
same,GI50,"[4]; UACC-62, AZI sheet",6.2 nM
same,GI50,"[4]; UACC-257, AZI sheet",92 nM
same,GI50,"[4]; UO-31, AZI sheet",44 nM
same,IC50,[2],4.1 nM
same,IC50(HeLa)/IC50(A549),[3],1.7
same,IC50,[3],6.9 nM
COc1cc2cc(C(=O)N3C[C@@H](CCl)c4c3cc(OC(=O)N(C)CCSSCCN3CCOCC3)c3ccccc43)[nH]c2c(OC)c1OC [SS00M-CBI-TMI],GI50,[4]; 786-0,16 nM
same,GI50,[4]; A498,270 nM
same,GI50,[4]; A549/ATCC,31 nM
same,GI50,[4]; ACHN,19 nM
same,GI50,[4]; BT-549,15 nM
same,GI50,[4]; CAKI-1,41 nM
same,GI50,[4]; CCRF-CEM,100 nM
same,GI50,[4]; COLO 205,450 nM
same,GI50,[4]; EKVX,82 nM
same,GI50,[4]; HCC-2998,78 nM
same,GI50,[4]; HCT-15,190 nM
same,GI50,[4]; HCT-116,610 nM
same,GI50,[4]; HL-60(TB),78 nM
same,GI50,[4]; HOP-62,11 nM
same,GI50,[4]; HOP-92,750 nM
same,GI50,[4]; HT29,320 nM
same,GI50,[4]; IGROV1,23 nM
same,GI50,[4]; K-562,330 nM
same,GI50,[4]; KM12,150 nM
same,GI50,[4]; LOX IMVI,42 nM
same,GI50,[4]; M14,31 nM
same,GI50,[4]; MALME-3M,110 nM
same,GI50,[4]; MDA-MB-435,51 nM
same,GI50,[4]; MDA-MB-468,12 nM
same,GI50,[4]; MOLT-4,17 nM
same,GI50,[4]; NCI-H23,9.6 nM
same,GI50,[4]; NCI-H226,29 nM
same,GI50,[4]; NCI-H460,9.5 nM
same,GI50,[4]; NCI-H522,400 nM
same,GI50,[4]; OVCAR-3,690 nM
same,GI50,[4]; OVCAR-4,560 nM
same,GI50,[4]; OVCAR-5,82 nM
same,GI50,[4]; OVCAR-8,43 nM
same,GI50,[4]; PC-3,25 nM
same,GI50,[4]; RPMI-8226,850 nM
same,GI50,[4]; RXF 393,6.6 nM
same,GI50,[4]; SF-268,21 nM
same,GI50,[4]; SF-295,7.4 nM
same,GI50,[4]; SF-539,8.3 nM
same,GI50,[4]; SK-MEL-5,35 nM
same,GI50,[4]; SK-MEL-28,41 nM
same,GI50,[4]; SK-OV-3,16 nM
same,GI50,[4]; SN12C,34 nM
same,GI50,[4]; SNB-19,28 nM
same,GI50,[4]; SR,6.9 nM
same,GI50,[4]; SW-620,570 nM
same,GI50,[4]; T-47D,50 nM
same,GI50,[4]; TK-10,820 nM
same,GI50,[4]; U251,18 nM
same,GI50,[4]; UACC-62,52 nM
same,GI50,[4]; UACC-257,500 nM
same,IC50,[2],35 nM
same,IC50(HeLa)/IC50(A549),[3],3.6
same,IC50,[3],125 nM
CN(C(=O)Oc1cc2c(c3ccccc13)[C@H](CCl)CN2C(=O)c1cc2cc(OCCCN3CCC3)ccc2[nH]1)[C@H]1CCS[Se]C1 [SeS60-CBI-AZI],outcome of repeated dosing at 3 mg/kg,[5]; once weekly,significant loss of body weight
same,outcome of repeated dosing at 1 mg/kg,[5]; treated twice a week,still caused adverse effects
same,remarks,[1],adverse effects
same,IC50,[2]; Homo sapiens,60 nM
same,IC50,[3]; Homo sapiens,49 nM
same,IC50(HeLa)/IC50(A549),[3],0.8
